Measurements from ChEMBL document CHEMBL1201862, “PubChem BioAssay data set” (2004).
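Growth conditions: 96-well plates. Treatment: test compound, 48 hours, 5 concentrations. Analysis: linear interpolation between bracketing concentrations; unreached endpoints set to highest concentration. At the GI50, growth is halved.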 Active and inactive are the calls of the source. Cut-off read from the data, not from the text of the source: active = GI50 up to about 1.1 µM and inactive = higher.

What was measured:
Experiment in all cases: NCI-60 cell line screen, 48 h
SK-MEL-5 = tested on: SK-MEL-5
OVCAR-5 = tested on: OVCAR-5
MCF7 = tested on: MCF7
SNB-19 = tested on: SNB-19
DLD-1 = tested on: DLD-1
SK-MEL-2 = tested on: SK-MEL-2
NCI-H226 = tested on: NCI-H226
DMS-273 = tested on: DMS-273
NCI/ADR-RES = tested on: NCI/ADR-RES
HL-60 = tested on: HL-60
SF-539 = tested on: SF-539
OVCAR-3 = tested on: OVCAR-3
OVCAR-8 = tested on: OVCAR-8
CAKI-1 = tested on: CAKI-1
HOP-92 = tested on: HOP-92
SW-620 = tested on: SW-620
SK-MEL-28 = tested on: SK-MEL-28
HOP-62 = tested on: HOP-62
COLO 205 = tested on: COLO 205
U-251 = tested on: U-251
A498 = tested on: A498
HCT-116 = tested on: HCT-116
KM-20L2 = tested on: KM-20L2
IGROV-1 = tested on: IGROV-1
SF-295 = tested on: SF-295
DMS-114 = tested on: DMS-114
SF-268 = tested on: SF-268
UO-31 = tested on: UO-31
UACC-257 = tested on: UACC-257
SK-OV-3 = tested on: SK-OV-3
HT-29 = tested on: HT-29
Malme-3M = tested on: Malme-3M
SNB-78 = tested on: SNB-78
K562 = tested on: K562
LXFL 529 = tested on: LXFL 529
M14 = tested on: M14
SR = tested on: SR
SN12C = tested on: SN12C
NCI-H23 = tested on: NCI-H23
NCI-H522 = tested on: NCI-H522
EKVX = tested on: EKVX
RXF 393 = tested on: RXF 393
NCI-H460 = tested on: NCI-H460
TK-10 = tested on: TK-10
786-0 = tested on: 786-0
KM12 = tested on: KM12
LOX IMVI = tested on: LOX IMVI
CCRF-CEM = tested on: CCRF-CEM
ACHN = tested on: ACHN
HCC 2998 = tested on: HCC 2998
MOLT-4 = tested on: MOLT-4
A549 = tested on: A549
HCT-15 = tested on: HCT-15
UACC-62 = tested on: UACC-62

COC(=O)C1C(O)C(C)C(O)C(C)/C=C\C=C(C)C(=O)Nc2c(C)c(OC(C)=O)c3c(c2O)C(=O)C(C)=C2OCOC(=C23)C(C)=CC(C)(O)C(O)C(C)C1O (stereo not given)
GI50 (SK-MEL-5): 40 µM (inactive) | GI50 (OVCAR-5): > 75 µM (inactive) | GI50 (MCF7): 20.1 µM (inactive) | GI50 (SNB-19): > 75 µM (inactive) | GI50 (DLD-1): 18.3 µM (inactive) | GI50 (SK-MEL-2): 18.1 µM (inactive) | GI50 (NCI-H226): 61.7 µM (inactive) | GI50 (DMS-273): 52.6 µM (inactive) | GI50 (NCI/ADR-RES): 56.9 µM (inactive) | GI50 (HL-60): 18.7 µM (inactive) | GI50 (SF-539): > 60.5 µM (inactive) | GI50 (OVCAR-3): 42.4 µM (inactive) | GI50 (OVCAR-8): 28.6 µM (inactive) | GI50 (CAKI-1): 33.7 µM (inactive) | GI50 (HOP-92): 60.1 µM (inactive) | GI50 (SW-620): 25 µM (inactive) | GI50 (SK-MEL-28): 26.6 µM (inactive) | GI50 (HOP-62): > 75 µM (inactive) | GI50 (COLO 205): 17.4 µM (inactive) | GI50 (U-251): 60.4 µM (inactive) | GI50 (A498): 63.1 µM (inactive) | GI50 (HCT-116): 26.4 µM (inactive) | GI50 (KM-20L2): 34 µM (inactive) | GI50 (IGROV-1): > 75 µM (inactive) | GI50 (SF-295): 62.5 µM (inactive) | GI50 (DMS-114): 19.7 µM (inactive) | GI50 (SF-268): 43.9 µM (inactive) | GI50 (UO-31): 72.6 µM (inactive) | GI50 (UACC-257): 32.1 µM (inactive) | GI50 (SK-OV-3): > 75 µM (inactive) | GI50 (HT-29): 21.7 µM (inactive) | GI50 (Malme-3M): 45.4 µM (inactive) | GI50 (SNB-78): 41.4 µM (inactive)

C/N=C(/NC)N(C)c1nc(=[N+](C)C)ss1.[O-][Cl+3]([O-])([O-])[O-]
GI50 (SK-MEL-5): > 100 µM (inactive) | GI50 (OVCAR-5): > 100 µM (inactive) | GI50 (K562): 31.2 µM (inactive) | GI50 (LXFL 529): > 100 µM (inactive) | GI50 (SNB-19): > 100 µM (inactive) | GI50 (M14): > 100 µM (inactive) | GI50 (SR): 55.5 µM (inactive) | GI50 (SK-MEL-2): > 100 µM (inactive) | GI50 (SN12C): > 100 µM (inactive) | GI50 (NCI-H226): 59.3 µM (inactive) | GI50 (DMS-273): 36.2 µM (inactive) | GI50 (HL-60): 46 µM (inactive) | GI50 (NCI-H23): 74.1 µM (inactive) | GI50 (NCI-H522): 56.4 µM (inactive) | GI50 (SF-539): > 100 µM (inactive) | GI50 (EKVX): > 100 µM (inactive) | GI50 (RXF 393): > 100 µM (inactive) | GI50 (NCI-H460): > 100 µM (inactive) | GI50 (OVCAR-3): > 100 µM (inactive) | GI50 (OVCAR-8): > 100 µM (inactive) | GI50 (TK-10): > 100 µM (inactive) | GI50 (CAKI-1): 16.3 µM (inactive) | GI50 (HOP-92): 75 µM (inactive) | GI50 (SW-620): > 100 µM (inactive) | GI50 (SK-MEL-28): > 100 µM (inactive) | GI50 (HOP-62): > 100 µM (inactive) | GI50 (786-0): > 100 µM (inactive) | GI50 (KM12): > 100 µM (inactive) | GI50 (U-251): > 100 µM (inactive) | GI50 (A498): 39.4 µM (inactive) | GI50 (LOX IMVI): 78.9 µM (inactive) | GI50 (CCRF-CEM): 61.9 µM (inactive) | GI50 (HCT-116): 62.1 µM (inactive) | GI50 (ACHN): > 100 µM (inactive) | GI50 (IGROV-1): > 100 µM (inactive) | GI50 (HCC 2998): > 100 µM (inactive) | GI50 (SF-295): > 100 µM (inactive) | GI50 (MOLT-4): 39.3 µM (inactive) | GI50 (A549): > 100 µM (inactive) | GI50 (SF-268): > 100 µM (inactive) | GI50 (UO-31): > 100 µM (inactive) | GI50 (UACC-257): > 100 µM (inactive) | GI50 (SK-OV-3): > 100 µM (inactive) | GI50 (HCT-15): 92.7 µM | GI50 (HT-29): > 100 µM (inactive) | GI50 (UACC-62): > 100 µM (inactive) | GI50 (SNB-78): 82.8 µM (inactive)
